The results in this text go back to patent US4874773A, “3-Aminocarbonyl-1,4-dihydropyridine-5-carboxylic acid compounds, and pharmaceutical composition containing the same” (priority 1985, dated 1989).

Entries after “also recorded” stand apart in the source; their conditions may differ. Like-named read-outs stand apart in the source and are kept apart here.

Series [1] concerns Spontaneously hypertensive male rats. Description: Experiment 1-2 Hypotensive activity (oral, 8 hours). Particulars: for hypotensive activity (in words): Table 5, comparison with nifedipine and nicardipine hydrochloride where stated. It counts as in vivo, rat. How it is done:
Spontaneously hypertensive male rats (13-15 week age, one group: 3 rats) were used. […] The rats were fixed in a Howlman cage without fasting, and the femoral arterial pressure was measured by a direct method without anesthesia with a cannula which was previously inserted into the femoral artery of the animal, via a pressure transducer (MPU-0.5, manufactured by Nippon Koden K.K.). The test compounds were orally administered in the form of a suspension in 0.5% methyl cellulose solution in a dose of 10 mg/kg (in some compounds, 3 mg/kg). In the control group, only 0.5% methyl cellulose solution was administered likewise. The blood pressure was measured for 5 hours after the administration of test compounds.
The hypotensive activity was measured in the same manner as described in Experiment 1-1 except that the rats were used in 3-5 rats per each group, and the test compounds were administered in a dose of 1 mg/kg (some compounds, 3 mg/kg), and the blood pressure was measured for 8 hours after the administration of test compounds.

In the next series the test system is isolated aorta. Description: Experiment 3 Relaxing activity on the isolated aorta (30 mM KCl contracted). More on the design: species or system Japanese white rabbit. Particulars: for EC50: Oryctolagus cuniculus, read-out: EC50 (concentration for 50% relaxation).
Series [2] deals with isolated heart. Description: Experiment 2-2 Activity onto the isolated heart (with duration). On the set-up: species or system Japanese white rabbit. Particulars: for Coronary perfusion Duration: time until perfusion volume returned to initial level; for activation at 3 µg/heart / inhibition at 3 µg/heart / activation at 1 µg/heart / inhibition at 1 µg/heart: Oryctolagus cuniculus; for activation at 3 µg/heart / activation at 1 µg/heart: read-out: Coronary perfusion Increase. As to the method: Japanese white rabbit (weighing 2.2-2.5 kg) was anesthetized by introvenous injection of nembutal (20 mg/kg) and then sacrificed by bleeding from common carotid artery. […] There were measured the perfusion volume with a drop-counting meter (ET-600G type, manufactured by Nippon Koden K.K.) and the heart pulse and the contractility via a force-displacement transducer (FD pick up, SB-IT type, manufactured by Nippon Koden K.K.) (for measuring heart pulse, an instant pulse meter (AT-601G type, minufactured by Nippon Koden K.K.) being further used).
The test compounds were dissolved in ethanol, and the solution was diluted in 100-fold with purified water, and the diluted solution was administered in an amount of 0.1 ml/heart (i.e. 3 μg/heart).
The activity was measured in the same manner as described in Experiment 2-1 except that in some test compounds, the dose was in 1 μg/heart. Besides, the duration of the activity was evaluated by counting the time until the coronary perfusion volume became to the initial level before the administration of the test compound.

The subject of series [3] is isolated heart. Nature of the series: Experiment 2-1 Activity on isolated heart. On the set-up: species or system Japanese white rabbit. Particulars: for activation at 3 µg/heart / inhibition at 3 µg/heart, 3 µg/heart / inhibition at 3 µg/heart: Oryctolagus cuniculus, 3 μg/heart; for activation at 3 µg/heart: read-out: Increase of coronary perfusion; for inhibition at 3 µg/heart, 3 µg/heart: read-out: Inhibitory rate of systole; for inhibition at 3 µg/heart: read-out: Reducing rate of heart pulse. As to the method: Japanese white rabbit (weighing 2.2-2.5 kg) was anesthetized by introvenous injection of nembutal (20 mg/kg) and then sacrificed by bleeding from common carotid artery. […] After stabilizing the heart preparation for 90 minutes, the test compound was administered. There were measured the perfusion volume with a drop-counting meter (ET-600G type, manufactured by Nippon Koden K.K.) and the heart pulse and the contractility via a force-displacement transducer (FD pick up, SB-IT type, manufactured by Nippon Koden K.K.) (for measuring heart pulse, an instant pulse meter (AT-601G type, minufactured by Nippon Koden K.K.) being further used).

The test system of series [4] is Spontaneously hypertensive male rats. Nature of the series: Experiment 1-1 Hypotensive activity (oral, conscious spontaneously hypertensive rats). It counts as in vivo, rat. The note with it: 10 mg/kg oral; for Maximum hypotension: mean blood pressure.
Series [5] in a line: Experiment 4-2 Acute toxicity, rats. The note with it: rat, in vivo, po, 4 week age, 7 days. An excerpt:
Wistar male and female rats (4 week age) and ddy male and female mice (4 week age) were used. The compounds of Example Nos. 82 and 83 were each orally administered to […].

The mark [6] stands for this setting: 3 μg/heart, read-out: Inhibitory rate of systole.
Setting [7] is: 3 μg/heart, read-out: Reducing rate of heart pulse.
The mark [8] stands for this setting: 30 mM KCl contraction, maximum relaxation by papaverine = 100%.
Setting [9] is: 1 μg/heart, read-out: Inhibitory rate of systole.
Setting [10] is: 1 μg/heart, read-out: Reducing rate of heart pulse.

Protocol for isolated aorta: Japanese white rabbit (weighing 2.3-2.7 kg) was sacrificed by bleeding from common carotid artery. Immediately, the aorta was isolated and cut into a sprial strip. The strip preparation was vertically suspended under a resting tension of 2.0 g in a tissue bath containing 20 ml of modified Ringer solution while bubbling with a mixture of 95% O2 +5% CO2 by connecting one end of the strip to a lever of the above-mentioned FD pick up. The aortic strip was contracted with 30 mM KCl. When the contraction became constant, the test compound was accumulatively administered, and the relaxing effect was measured. After the final treatment, 10^-4T M papaverine was administered and the maximum relaxation obtained thereby was taken as 100%. In comparison with the maximum relaxation obtained by papaverine, the rate of relaxation by the test compounds was evaluated, and the concentration of the test compounds for obtaining 50% relaxation (EC50) was calculated.
The test compound was dissolved in ethanol, and the solution was diluted in 100 to 1×10^4 folds with a nutrient solution, and the diluted solution was administered.

Consider `COC(=O)C1=C(C)NC(C)=C(C(=O)OC)C1c1ccccc1[N+](=O)[O-]` [Compound A, dimethyl 1,4-dihydro-2,6-dimethyl-4-(2-nitophenyl)3,5-pyridinedicarboxylate, reference compound], for which, in series [1] (1 mg/kg oral), the Maximum hypotension amounted to 55 mmHg, the Recovering time lay in the range of 3.0 to 4.0 h, the “Time for recovering 1/2 of max. hypotension” value (shortened to “Time … of max. hypotension”) came out at 2.0 h and the “Time until reaching to max. hypotension” value is 30 min. The EC50 with isolated aorta came out at 41 nM. For the same compound, in the series with isolated heart [2] (3 μg/heart), the “Coronary perfusion Duration” value is below 10 min and the activation at 3 µg/heart turned out to be 40%. For the same compound, the inhibition at 3 µg/heart in the series on isolated heart [2] (setting [6]) is 35%. Moreover, the inhibition at 3 µg/heart with isolated heart [2] (setting [7]) worked out at 10%. Further, in the series with isolated heart [3], the activation at 3 µg/heart was 40%; the inhibition at 3 µg/heart, 3 µg/heart came to 35%; the inhibition at 3 µg/heart was 10%. In series [4], the Recovering time turned out to be 4.0 h, the “Time … of max. hypotension” value worked out at 1.5 h, the “Time until reaching to max. hypotension” value worked out at 15 min and the Maximum hypotension was 49 mmHg.
For `COC(=O)C1=C(C)NC(C)=C(C(=O)OCCN(C)Cc2ccccc2)C1c1cccc([N+](=O)[O-])c1.Cl` (stereo not drawn) [Compound B, methyl, N-benzyl-N-methylaminoethyl 1,4-dihydro-2,6-dimethyl-4-(3-nitrophenyl)-3,5-pyridinedicarboxylate hydrochloride, reference compound], in series [1] (3 mg/kg oral), the Maximum hypotension is listed as 27 mmHg, the Recovering time was in the range of 3.0 to 4.0 h, the “Time … of max. hypotension” value worked out at 2.0 h and the “Time until reaching to max. hypotension” value is 30 min. In addition, in the series on isolated aorta (setting [8]), the EC50 turned out to be 19 nM. Further, in the series on isolated heart [2] (3 μg/heart), the “Coronary perfusion Duration” value was below 10 min and the activation at 3 µg/heart is 15%. Besides, the inhibition at 3 µg/heart in the series with isolated heart [2] (setting [6]) was found to be 10%. The inhibition at 3 µg/heart with isolated heart [2] (setting [7]) stood at 5%. In addition, in the series with isolated heart [3], the activation at 3 µg/heart worked out at 15%; the inhibition at 3 µg/heart, 3 µg/heart is 10%; the inhibition at 3 µg/heart was 5%. Moreover, in series [4], the Recovering time is above 5.0 h, the “Time … of max. hypotension” value was above 5.0 h, the “Time until reaching to max. hypotension” value came to 15 min and the Maximum hypotension is on record as 57 mmHg.
Take `CCCCCCCCCCOC(=O)C1=C(C)NC(C)=C(C(=O)NC(C)C)C1c1ccccc1[N+](=O)[O-]` (stereo not drawn) [Example 52]: the EC50 in the series with isolated aorta (setting [8]) amounted to 420 nM. Also, in the series on isolated heart [3], the activation at 3 µg/heart was found to be 20%; the inhibition at 3 µg/heart, 3 µg/heart is 45%; the inhibition at 3 µg/heart worked out at 15%. Besides, the “inhibitions on the heart pulse and contactility (in words)” value in the series with isolated heart [3] (Table 6) is “moderate inhibitions on the heart pulse and contactility”. For the same compound, in series [4], the Recovering time came out at 1.0 h, the “Time … of max. hypotension” value stood at 0.5 h, the “Time until reaching to max. hypotension” value was determined as 15 min and the Maximum hypotension stood at 12 mmHg.
For `CCCCOC(=O)C1=C(C)NC(C)=C(C(=O)NC(C)C)C1c1cccc([N+](=O)[O-])c1` (stereo not drawn) [Example 64], in the series on isolated aorta (setting [8]), the EC50 turned out to be 150 nM. Further, in the series with isolated heart [3], the activation at 3 µg/heart was 12%; the inhibition at 3 µg/heart, 3 µg/heart worked out at 0%; the inhibition at 3 µg/heart is 4%. In series [4], the Recovering time turned out to be 5.0 h, the “Time … of max. hypotension” value was 2.0 h, the “Time until reaching to max. hypotension” value amounted to 30 min and the Maximum hypotension was found to be 57 mmHg.
Regarding `CC1=C(C(=O)NC(C)C)C(c2cccc([N+](=O)[O-])c2)C(C(=O)OCC(C)C)=C(C)N1` (stereo not drawn) [Example 65], the EC50 with isolated aorta (setting [8]) came to 130 nM. In the series with isolated heart [3], the activation at 3 µg/heart amounted to 8%; the inhibition at 3 µg/heart, 3 µg/heart stood at 5%; the inhibition at 3 µg/heart turned out to be 8%. Further, in series [4], the Recovering time is 2.5 h, the “Time … of max. hypotension” value turned out to be 1.5 h, the “Time until reaching to max. hypotension” value turned out to be 30 min and the Maximum hypotension stood at 50 mmHg.
Consider `CCCCOC(=O)C1=C(C)NC(C)=C(C(=O)NCCC)C1c1cccc([N+](=O)[O-])c1` (stereo not drawn) [Example 68], for which, in the series on isolated aorta (setting [8]), the EC50 was found to be 100 nM. Moreover, in the series with isolated heart [3], the activation at 3 µg/heart worked out at 29%; the inhibition at 3 µg/heart, 3 µg/heart is 6%; the inhibition at 3 µg/heart is 11%. Moreover, in series [4], the Recovering time was found to be 1.0 h, the “Time … of max. hypotension” value came out at 0.5 h, the “Time until reaching to max. hypotension” value came out at 15 min and the Maximum hypotension was 5 mmHg.
`C#CCNC(=O)C1=C(C)NC(C)=C(C(=O)OCCCCCCCC)C1c1ccccc1[N+](=O)[O-]` (stereo not drawn) [Example 78, n-octyl 2,6-dimethyl-3-propargylaminocarbonyl-4-(o-nitrophenyl)-1,4-dihydropyridine-5-carboxylate]: in series [1] (1 mg/kg oral), the Maximum hypotension came out at 33 mmHg, the Recovering time was found to be 5.0 h, the “Time … of max. hypotension” value is 3.0 h and the “Time until reaching to max. hypotension” value stood at 60 min. Further, the “hypotensive activity (in words)” value in series [1] is on record as “the same or more potent hypotensive activity with longer duration”. Also, in the series with isolated heart [2] (1 μg/heart), the “Coronary perfusion Duration” value was found to be 60 min and the activation at 1 µg/heart came to 55%. Moreover, the inhibition at 1 µg/heart in the series on isolated heart [2] (setting [9]) was determined as 35%. The inhibition at 1 µg/heart with isolated heart [2] (setting [10]) was 10%.
With `C#CCNC(=O)C1=C(C)NC(C)=C(C(=O)OCCCCCCCCC)C1c1ccccc1[N+](=O)[O-]` (stereo not drawn) [Example 79, n-nonyl 2,6-dimethyl-3-propargylaminocarbonyl-4-(o-nitrophenyl)-1,4-dihydropyridine-5-carboxylate], in series [1] (1 mg/kg oral), the Maximum hypotension worked out at 45 mmHg, the Recovering time came out at 5.0 h, the “Time … of max. hypotension” value is 3.0 h and the “Time until reaching to max. hypotension” value turned out to be 60 min. Also, the “hypotensive activity (in words)” value in series [1] was “the same or more potent hypotensive activity with longer duration”. Also, in the series on isolated heart [2] (1 μg/heart), the “Coronary perfusion Duration” value was 60 min and the activation at 1 µg/heart was 50%. Also, in the series on isolated heart [2] (setting [9]), the inhibition at 1 µg/heart turned out to be 40%. Moreover, the inhibition at 1 µg/heart with isolated heart [2] (setting [10]) came to 30%.
The term LD50 denotes the dose at which mortality reaches 50%. Higher therefore signals a less toxic substance. Consider `CCCCCCCCCOC(=O)C1=C(C)NC(C)=C(C(=O)NC2CC2)C1c1ccccc1[N+](=O)[O-]` (stereo not drawn) [Example 83, n-nonyl 2,6-dimethyl-3-cyclopropylaminocarbonyl-4-(o-nitrophenyl)-1,4-dihydropyridine-5-carboxylate], for which, in series [1] (1 mg/kg oral), the Maximum hypotension was found to be 61 mmHg, the Recovering time is above 8.0 h, the “Time … of max. hypotension” value is above 8.0 h and the “Time until reaching to max. hypotension” value came out at 180 min. Moreover, in series [1], the “hypotensive activity (in words)” value is recorded as “the same or more potent hypotensive activity with longer duration; also recorded: potent hypotensive activity”. In addition, the EC50 in the series with isolated aorta turned out to be 290 nM. Also, the “relaxing / vasodilating activity on isolated aorta (in words)” value in the series on isolated aorta (Table 8, comparison with nifedipine and nicardipine hydrochloride, etc. where stated) is on record as “somewhat weak vasodilating activity”. Also, the “Coronary perfusion Duration” value in the series on isolated heart [2] (3 μg/heart) is above 120 min. The activation at 3 µg/heart in the series with isolated heart [2] amounted to 42%. Besides, the inhibition at 3 µg/heart in the series with isolated heart [2] (read-out: Inhibitory rate of systole) was 50%. Further, the inhibition at 3 µg/heart in the series with isolated heart [2] (read-out: Reducing rate of heart pulse) came out at 20%. This compound displayed an LD50 at 168 h in series [5] (female rats) of at most 10 mg/kg. In addition, the LD50 at 168 h in series [5] (male rats) lay within 100 to 500 mg/kg.
